Values quoted from earlier work as cited in paper PMC8513935.

Legend:
[1] = experimental, compiled by the authors from the literature (the ESI cites the sources)
[2] = log P octanol/water from commercial databases, averaged (the ESI); conditions: Octanol (wet), 25 C
[3] = derived by the authors as gas->solvent minus gas->water (a hypothetical dry solvent; the ESI), not a two-phase measurement

O=C1CCCCC1
log K of transfer, gas to solvent ([1]; 1,2-Dichloroethane, 25 C): 4.97 log10 K | log K of transfer, gas to solvent ([1]; CCl4, 25 C): 4.57 log10 K | log K of transfer, gas to solvent ([1]; Cyclohexanone, 25 C): 4.65 log10 K | log K of transfer, gas to solvent ([1]; Hexadecane, 25 C): 3.79 log10 K | log K of transfer, gas to solvent ([1]; Hexane, 25 C): 3.65 log10 K | log K of transfer, gas to solvent ([1]; Water, 25 C): 3.6 log10 K | log K of transfer, water to solvent [2]: 0.81 log10 K | log K of transfer, water to solvent ([3]; 1,2-Dichloroethane, 25 C): 1.37 log10 K | log K of transfer, water to solvent ([3]; CCl4, 25 C): 0.97 log10 K | log K of transfer, water to solvent ([3]; Cyclohexanone, 25 C): 1.05 log10 K | log K of transfer, water to solvent ([3]; Hexadecane, 25 C): 0.192 log10 K | log K of transfer, water to solvent ([3]; Hexane, 25 C): 0.05 log10 K

c1ccc2c(c1)Cc1ccccc1-2
log K of transfer, gas to solvent ([1]; 2-Methylpropan-1-ol, 25 C): 6.75 log10 K | log K of transfer, gas to solvent ([1]; 2-Methylpropan-2-ol, 25 C): 6.48 log10 K | log K of transfer, gas to solvent ([1]; 3-Methylbutan-1-ol, 25 C): 6.56 log10 K | log K of transfer, gas to solvent ([1]; Acetonitrile, 25 C): 7.12 log10 K | log K of transfer, gas to solvent ([1]; Butan-1-ol, 25 C): 6.71 log10 K | log K of transfer, gas to solvent ([1]; Butan-2-ol, 25 C): 6.56 log10 K | log K of transfer, gas to solvent ([1]; Decan-1-ol, 25 C): 6.84 log10 K | log K of transfer, gas to solvent ([1]; Ethanol, 25 C): 6.54 log10 K | log K of transfer, gas to solvent ([1]; Heptan-1-ol, 25 C): 6.84 log10 K | log K of transfer, gas to solvent ([1]; Hexadecane, 25 C): 6.92 log10 K | log K of transfer, gas to solvent ([1]; Hexan-1-ol, 25 C): 6.79 log10 K | log K of transfer, gas to solvent ([1]; Hexane, 25 C): 6.81 log10 K | log K of transfer, gas to solvent ([1]; Methanol, 25 C): 6.48 log10 K | log K of transfer, gas to solvent ([1]; Octan-1-ol, 25 C): 6.83 log10 K | log K of transfer, gas to solvent ([1]; Pentan-1-ol, 25 C): 6.77 log10 K | log K of transfer, gas to solvent ([1]; Propan-1-ol, 25 C): 6.66 log10 K | log K of transfer, gas to solvent ([1]; Propan-2-ol, 25 C): 6.54 log10 K | log K of transfer, gas to solvent ([1]; Water, 25 C): 2.45 log10 K | log K of transfer, water to solvent [2]: 4.18 log10 K | log K of transfer, water to solvent ([3]; 2-Methylpropan-1-ol, 25 C): 4.3 log10 K | log K of transfer, water to solvent ([3]; 2-Methylpropan-2-ol, 25 C): 4.03 log10 K | log K of transfer, water to solvent ([3]; 3-Methylbutan-1-ol, 25 C): 4.11 log10 K | log K of transfer, water to solvent ([3]; Acetonitrile, 25 C): 4.67 log10 K | log K of transfer, water to solvent ([3]; Butan-1-ol, 25 C): 4.26 log10 K | log K of transfer, water to solvent ([3]; Butan-2-ol, 25 C): 4.11 log10 K | log K of transfer, water to solvent ([3]; Decan-1-ol, 25 C): 4.39 log10 K | log K of transfer, water to solvent ([3]; Ethanol, 25 C): 4.09 log10 K | log K of transfer, water to solvent ([3]; Heptan-1-ol, 25 C): 4.39 log10 K | log K of transfer, water to solvent ([3]; Hexadecane, 25 C): 4.47 log10 K | log K of transfer, water to solvent ([3]; Hexan-1-ol, 25 C): 4.34 log10 K | log K of transfer, water to solvent ([3]; Hexane, 25 C): 4.36 log10 K | log K of transfer, water to solvent ([3]; Methanol, 25 C): 4.03 log10 K | log K of transfer, water to solvent ([3]; Octan-1-ol(dry), 25 C): 4.38 log10 K | log K of transfer, water to solvent ([3]; Pentan-1-ol, 25 C): 4.32 log10 K | log K of transfer, water to solvent ([3]; Propan-1-ol, 25 C): 4.21 log10 K | log K of transfer, water to solvent ([3]; Propan-2-ol, 25 C): 4.09 log10 K

CC(C)C(C)C(C)C
log K of transfer, gas to solvent ([1]; 1,2-Dichloroethane, 25 C): 3.19 log10 K | log K of transfer, gas to solvent ([1]; Acetonitrile, 25 C): 2.51 log10 K | log K of transfer, gas to solvent ([1]; Butan-1-ol, 25 C): 3.1 log10 K | log K of transfer, gas to solvent ([1]; Butanone, 25 C): 3.22 log10 K | log K of transfer, gas to solvent ([1]; Butyronitrile, 25 C): 3.01 log10 K | log K of transfer, gas to solvent ([1]; CCl4, 25 C): 3.72 log10 K | log K of transfer, gas to solvent ([1]; Chlorobenzene, 25 C): 3.69 log10 K | log K of transfer, gas to solvent ([1]; Chloroform, 25 C): 3.63 log10 K | log K of transfer, gas to solvent ([1]; Cyclohexanone, 25 C): 3.15 log10 K | log K of transfer, gas to solvent ([1]; Dichloromethane, 25 C): 3.47 log10 K | log K of transfer, gas to solvent ([1]; Ethanol, 25 C): 2.94 log10 K | log K of transfer, gas to solvent ([1]; Hexadecane, 25 C): 3.48 log10 K | log K of transfer, gas to solvent ([1]; Hexane, 25 C): 3.68 log10 K | log K of transfer, gas to solvent ([1]; Methanol, 25 C): 2.66 log10 K | log K of transfer, gas to solvent ([1]; Perfluoroalkane, 25 C): 2.45 log10 K | log K of transfer, gas to solvent ([1]; Propan-1-ol, 25 C): 2.95 log10 K | log K of transfer, gas to solvent ([1]; Propan-2-ol, 25 C): 2.95 log10 K | log K of transfer, gas to solvent ([1]; Propanone, 25 C): 3.03 log10 K | log K of transfer, gas to solvent ([1]; Propionitrile, 25 C): 2.83 log10 K | log K of transfer, gas to solvent ([1]; Tetrahydrofuran, 25 C): 3.59 log10 K | log K of transfer, gas to solvent ([1]; Water, 25 C): -1.88 log10 K | log K of transfer, water to solvent [2]: 4.8 log10 K | log K of transfer, water to solvent ([3]; 1,2-Dichloroethane, 25 C): 5.07 log10 K | log K of transfer, water to solvent ([3]; Acetone, 25 C): 4.91 log10 K | log K of transfer, water to solvent ([3]; Acetonitrile, 25 C): 4.39 log10 K | log K of transfer, water to solvent ([3]; Butan-1-ol, 25 C): 4.98 log10 K | log K of transfer, water to solvent ([3]; Butanone, 25 C): 5.1 log10 K | log K of transfer, water to solvent ([3]; Butyronitrile, 25 C): 4.89 log10 K | log K of transfer, water to solvent ([3]; CCl4, 25 C): 5.6 log10 K | log K of transfer, water to solvent ([3]; Chlorobenzene, 25 C): 5.57 log10 K | log K of transfer, water to solvent ([3]; Chloroform, 25 C): 5.51 log10 K | log K of transfer, water to solvent ([3]; Cyclohexanone, 25 C): 5.03 log10 K | log K of transfer, water to solvent ([3]; Dichloromethane, 25 C): 5.35 log10 K | log K of transfer, water to solvent ([3]; Ethanol, 25 C): 4.82 log10 K | log K of transfer, water to solvent ([3]; Hexadecane, 25 C): 5.36 log10 K | log K of transfer, water to solvent ([3]; Hexane, 25 C): 5.56 log10 K | log K of transfer, water to solvent ([3]; Methanol, 25 C): 4.54 log10 K | log K of transfer, water to solvent ([3]; Perfluoroalkane, 25 C): 4.33 log10 K | log K of transfer, water to solvent ([3]; Propan-1-ol, 25 C): 4.83 log10 K | log K of transfer, water to solvent ([3]; Propan-2-ol, 25 C): 4.83 log10 K | log K of transfer, water to solvent ([3]; Propionitrile, 25 C): 4.71 log10 K | log K of transfer, water to solvent ([3]; Tetrahydrofuran, 25 C): 5.47 log10 K

O=C1CCCCN1
log K of transfer, gas to solvent ([1]; Hexadecane, 25 C): 4.18 log10 K | log K of transfer, gas to solvent ([1]; Water, 25 C): 6.97 log10 K | log K of transfer, water to solvent [2]: -0.465 log10 K | log K of transfer, water to solvent ([3]; Hexadecane, 25 C): -2.79 log10 K

CC(C)CCC(C)C
log K of transfer, gas to solvent ([1]; 1,2-Dichloroethane, 25 C): 3.1 log10 K | log K of transfer, gas to solvent ([1]; Acetonitrile, 25 C): 2.39 log10 K | log K of transfer, gas to solvent ([1]; Butanone, 25 C): 3.14 log10 K | log K of transfer, gas to solvent ([1]; Butyronitrile, 25 C): 2.92 log10 K | log K of transfer, gas to solvent ([1]; CCl4, 25 C): 3.66 log10 K | log K of transfer, gas to solvent ([1]; Chlorobenzene, 25 C): 3.64 log10 K | log K of transfer, gas to solvent ([1]; Chloroform, 25 C): 3.56 log10 K | log K of transfer, gas to solvent ([1]; Cyclohexanone, 25 C): 3.06 log10 K | log K of transfer, gas to solvent ([1]; Dichloromethane, 25 C): 3.4 log10 K | log K of transfer, gas to solvent ([1]; Hexadecane, 25 C): 3.31 log10 K | log K of transfer, gas to solvent ([1]; Hexane, 25 C): 3.64 log10 K | log K of transfer, gas to solvent ([1]; Perfluoroalkane, 25 C): 2.37 log10 K | log K of transfer, gas to solvent ([1]; Propan-2-ol, 25 C): 2.87 log10 K | log K of transfer, gas to solvent ([1]; Propanone, 25 C): 2.95 log10 K | log K of transfer, gas to solvent ([1]; Propionitrile, 25 C): 2.76 log10 K | log K of transfer, gas to solvent ([1]; Tetrahydrofuran, 25 C): 3.53 log10 K | log K of transfer, gas to solvent ([1]; Toluene, 25 C): 3.47 log10 K | log K of transfer, gas to solvent ([1]; Water, 25 C): -2.02 log10 K | log K of transfer, water to solvent [2]: 4.8 log10 K | log K of transfer, water to solvent ([3]; 1,2-Dichloroethane, 25 C): 5.12 log10 K | log K of transfer, water to solvent ([3]; Acetone, 25 C): 4.97 log10 K | log K of transfer, water to solvent ([3]; Acetonitrile, 25 C): 4.41 log10 K | log K of transfer, water to solvent ([3]; Butanone, 25 C): 5.16 log10 K | log K of transfer, water to solvent ([3]; Butyronitrile, 25 C): 4.94 log10 K | log K of transfer, water to solvent ([3]; CCl4, 25 C): 5.68 log10 K | log K of transfer, water to solvent ([3]; Chlorobenzene, 25 C): 5.66 log10 K | log K of transfer, water to solvent ([3]; Chloroform, 25 C): 5.58 log10 K | log K of transfer, water to solvent ([3]; Cyclohexanone, 25 C): 5.08 log10 K | log K of transfer, water to solvent ([3]; Dichloromethane, 25 C): 5.42 log10 K | log K of transfer, water to solvent ([3]; Hexadecane, 25 C): 5.33 log10 K | log K of transfer, water to solvent ([3]; Hexane, 25 C): 5.66 log10 K | log K of transfer, water to solvent ([3]; Perfluoroalkane, 25 C): 4.39 log10 K | log K of transfer, water to solvent ([3]; Propan-2-ol, 25 C): 4.89 log10 K | log K of transfer, water to solvent ([3]; Propionitrile, 25 C): 4.78 log10 K | log K of transfer, water to solvent ([3]; Tetrahydrofuran, 25 C): 5.55 log10 K | log K of transfer, water to solvent ([3]; Toluene, 25 C): 5.49 log10 K
